Assay results as given in patent US8992932B2, “Binder-drug conjugates (ADCs) and use thereof” (Seattle Genetics, Inc., priority 2011, dated 2015).
Counter-ions that a name gives are not always drawn. Square brackets hold non-standard residues; d marks the D form. Peptide text beside a SMILES is read from it. * marks the point of attachment. X2 = CC(C)[C@@H](C(=O)*)N(C)CCCCCCN1C(=O)CC(SC[C@H](N)C(=O)O)C1=O; X1 = CC(C)[C@@H](C(=O)*)N(C)CCCCCC(=O)NCCCC[C@H](N)C(=O)O; Dolaproine = CO[C@@H]([C@@H]1CCCN1)[C@@H](C)C(=O)O; Dil = CC[C@H](C)[C@H](NC)[C@@H](CC(=O)O)OC; Oxazinan2yl(1,2) = C1CCN(*)OC1

Tested on: Caco-2 cells
Assay: Cell permeability flux assay using Caco-2 cells
Type: in vitro ADME
Conditions: basal to apical, 2 hours
Protocol: The cell permeability of a substance can be investigated by means of in vitro testing in a flux assay using Caco-2 cells [M. D. Troutman and D R Thakker, Pharm. Res. 20 (8), 1210-1224 (2003)]. For this purpose, the cells were cultured for 15-16 days on 24-well filter plates. For the determination of permeation, the respective working example was applied in a HEPES buffer to the cells either apically (A) or basally (B) and incubated for 2 hours. After 0 hours and after 2 hours, samples were taken from the cis and trans compartments. The samples were separated by HPLC (Agilent 1200, Boblingen, Germany) using reverse phase columns. The HPLC system was coupled via a Turbo Ion Spray Interface to a Triple Quadropol mass spectrometer API 4000 (Applied Biosystems Applera, Darmstadt, Germany). The permeability was evaluated on the basis of a Papp value, which was calculated using the formula published by Schwab et al. [D. Schwab et al., J. Med. Chem. 46, 1716-1725 (2003)].

| SMILES | Papp (B-A) [nm/s] |
| --- | --- |
| CC[C@H](C)[C@@H]([C@@H](CC(=O)N1CCC[C@H]1[C@H](OC)[C@@H](C)C(=O)N[C@@H](Cc1ccc(O)cc1)C(=O)N1CCCCO1)OC)N(C)C(=O)[C@@H](NC(=O)[C@H](C(C)C)N(C)CCCCCC(=O)NCCCC[C@H](N)C(=O)O)C(C)C [Example 127, N-(6-{[(55)-5-Amino-5-carboxypentyl]amino}-6-oxohexyl)-N-methyl-L-valyl-N-[(3R,4S,5S)-1-{(2S)-2-[(1R,2R)-3-{[(2S)-3-(4-hydroxyphenyl)-1-(1,2-oxazinan-2-yl)-1-oxopropan-2-yl]amino}-1-methoxy-2-methyl-3-oxopropyl]pyrrolidin-1-yl}-3-methoxy-5-methyl-1-oxoheptan-4-yl]-N-methyl-L-valinamide trifluoroacetate] (X1-V[Dil][Dolaproine]Y-{Oxazinan2yl(1,2)}) | 1.5 |
| CC[C@H](C)[C@@H]([C@@H](CC(=O)N1CCC[C@H]1[C@H](OC)[C@@H](C)C(=O)N[C@@]1(C(=O)N2CCCCO2)C[C@@H]1c1ccccc1)OC)N(C)C(=O)[C@@H](NC(=O)[C@H](C(C)C)N(C)CCCC(=O)NNC(=O)CCCCCN1C(=O)CC(SC[C@H](N)C(=O)O)C1=O)C(C)C (stereo partly drawn) [Example 73, N-(4-{2-[6-(3-{[(2R)-2-Amino-2-carboxyethyl]sulphanyl}-2,5-dioxopyrrolidin-1-yl)hexanoyl]hydrazino}-4-oxobutyl)-N-methyl-L-valyl-N-[(3R,4S,5S)-3-methoxy-1-{(2S)-2-[(1R,2R)-1-methoxy-2-methyl-3-{[(1S,2R)-1-(1,2-oxazinan-2-ylcarbonyl)-2-phenylcyclopropyl]amino}-3-oxopropyl]pyrrolidin-1-yl}-5-methyl-1-oxoheptan-4-yl]-N-methyl-L-valinamide] | 2.5 |
| CC[C@H](C)[C@@H]([C@@H](CC(=O)N1CCC[C@H]1[C@H](OC)[C@@H](C)C(=O)N[C@@H](Cc1c[nH]c2ccccc12)C(N)=O)OC)N(C)C(=O)[C@@H](NC(=O)[C@H](C(C)C)N(C)CCCCCCN1C(=O)CC(SC[C@H](N)C(=O)O)C1=O)C(C)C (stereo partly drawn) [Example 74, N-[6-(3-{[(2R)-2-Amino-2-carboxyethyl]sulphanyl}-2,5-dioxopyrrolidin-1-yl)hexyl]-N-methyl-L-valyl-N-[(3R,4S,5S)-1-{(2S)-2-[(1R,2R)-3-{[(2S)-1-amino-3-(1H-indol-3-yl)-1-oxopropan-2-yl]amino}-1-methoxy-2-methyl-3-oxopropyl]pyrrolidin-1-yl}-3-methoxy-5-methyl-1-oxoheptan-4-yl]-N-methyl-L-valinamide] (X2-V[Dil][Dolaproine]W-NH2) | 5 |
| CC[C@H](C)[C@@H]([C@@H](CC(=O)N1CCC[C@H]1[C@H](OC)[C@@H](C)C(=O)N[C@@H](Cc1c[nH]c2ccccc12)C(N)=O)OC)N(C)C(=O)[C@@H](NC(=O)[C@H](C(C)C)N(C)CCCC(=O)NNC(=O)CCCCCN1C(=O)CC(SC[C@H](N)C(=O)O)C1=O)C(C)C (stereo partly drawn) [Example 71, N-(4-{2-[6-(3-{[(2R)-2-Amino-2-carboxyethyl]sulphanyl}-2,5-dioxopyrrolidin-1-yl)hexanoyl]hydrazino}-4-oxobutyl)-N-methyl-L-valyl-N-[(3R,4S,5S)-1-{(2S)-2-[(1R,2R)-3-{[(2S)-1-amino-3-(1H-indol-3-yl)-1-oxopropan-2-yl]amino}-1-methoxy-2-methyl-3-oxopropyl]pyrrolidin-1-yl}-3-methoxy-5-methyl-1-oxoheptan-4-yl]-N-methyl-L-valinamide] | 2 |
